23 molecules from patent publication US12162858B2, “Quinoline derivatives as inhibitors of AXL/MER RTK and CSF1R” (QURIENT CO., LTD., priority 2018, dated 2024) can be followed below.

For test [1], the target named is T1, Axl (Homo sapiens, UniProt P30530).
T1 sequence (P30530 26-894): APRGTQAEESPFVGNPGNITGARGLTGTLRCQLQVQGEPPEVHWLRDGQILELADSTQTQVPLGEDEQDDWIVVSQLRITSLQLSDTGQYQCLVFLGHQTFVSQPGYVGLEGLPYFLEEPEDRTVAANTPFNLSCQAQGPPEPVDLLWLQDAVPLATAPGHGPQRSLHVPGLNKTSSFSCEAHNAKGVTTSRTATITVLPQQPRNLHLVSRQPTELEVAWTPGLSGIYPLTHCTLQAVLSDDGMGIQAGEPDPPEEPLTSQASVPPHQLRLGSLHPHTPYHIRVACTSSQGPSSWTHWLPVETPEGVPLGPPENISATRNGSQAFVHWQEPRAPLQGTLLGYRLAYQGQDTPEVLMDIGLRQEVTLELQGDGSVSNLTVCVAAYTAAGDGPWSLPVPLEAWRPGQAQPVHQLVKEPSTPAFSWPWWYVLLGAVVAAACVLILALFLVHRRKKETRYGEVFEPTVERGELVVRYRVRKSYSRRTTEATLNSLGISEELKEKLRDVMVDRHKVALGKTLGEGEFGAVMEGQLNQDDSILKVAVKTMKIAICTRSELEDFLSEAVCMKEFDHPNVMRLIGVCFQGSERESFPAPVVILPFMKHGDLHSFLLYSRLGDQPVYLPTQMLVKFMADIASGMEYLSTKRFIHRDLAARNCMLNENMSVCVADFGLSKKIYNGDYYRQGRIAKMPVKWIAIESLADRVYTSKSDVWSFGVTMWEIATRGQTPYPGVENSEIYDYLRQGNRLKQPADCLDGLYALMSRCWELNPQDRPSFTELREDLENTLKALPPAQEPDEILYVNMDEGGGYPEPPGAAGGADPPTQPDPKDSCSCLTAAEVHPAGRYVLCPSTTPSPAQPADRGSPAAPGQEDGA
Nature of the test: Cellular Axl inhibition ELISA (p-Axl, Gas6-induced) using H1299 cells. More on the design: especially H1299 cell endogenously expresses Axl; endogenous in cells; host or cells: H1299. It counts as cell-based. As to the method: Axl is expressed in several of malignant cancer cells; especially H1299 cell endogenously expresses Axl; and an increased phosphorylation of Axl (p-Axl) can be observed, when induced by the Axl ligand, Ga6.
The H1299 cells should be 40-80% confluent in the cell culture flask. Then cells are washed with DPBS and trypsinized. After centrifugation, the cell pellet is re-suspended with pre-warmed culture medium (RPMI1640, 10% FBS) and cells are separated by pipetting 6 times up and down with a 10 ml serological pipette. The cell suspension was diluted to a final concentration of 1.25×10^5 cells/ml. Then 80 μl/well cell suspension is added to the plate. Cell-plates are incubated at 37° C./5% CO2 overnight. Compounds were dissolved by DMSO to 10 mM, and kept in nitrogen cabinet. Prepare the compounds stock plate, the reference compounds concentration starts at 0.50 mM (5 μl+95 μl DMSO), and the tested compounds start at 1.5 mM (6 μl+34 μl DMSO); Then make a 3-fold dilution series (10 doses) compounds. Then dilute compounds by the medium in the mid plate (2 μl compounds+198 μl medium). Transfer 20 μl diluted compounds from mid plate to the cell coated plate. Cell-plates are incubated at 37° C./5% CO2 for 24 h. Add 25 μl of Human Gas6 (1000 ng/ml) to 96-well plate; the final concentration of Human Gas6 is 200 ng/ml. Incubate the plates at 37° C./5% CO2 for 1 h. Remove medium and wash cells once with 300 ul/well ice-cold 1×PBS. Then remove PBS and add 100 μl/well ice-cold 1× Cell Lysis Buffer to 96-well plate. The plate is shaken for 40 min at 4° C. Then plates can be stored at −20° C. After the micro-wells strips have reached room temperature, break off the required number of micro-wells. Place the micro-wells in the strip holder. Unused micro-wells must be resealed and stored at 4° C. immediately. Add 60 μl of cell lysate to the appropriate well. Seal with tape and press firmly onto top of micro-wells. Incubate the plate at 37° C. for 2 h. Gently remove the tape and wash wells 5 times with 1× Wash Buffer, 300 μl each time for each well. Add 100 μl of reconstituted Detection Antibody (green color) to each well. Seal with tape and incubate the plate at 37° C. for 1 h. Repeat wash procedure. Add 100 μl of reconstituted HRP Linked secondary antibody to each well. Seal with tape and incubate the plate at 37° C. for 30 min. Repeat wash procedure. Add 100 μl of TMB Substrate to each well. Seal with tape and incubate the plate at 37° C. for 15 min. Add 100 μl of STOP Solution to each well. Shake gently for a few seconds. Read absorbance at 450 nm within 30 min after adding STOP Solution. Calculations and Formulas: The following calculations and formulas are used for data analysis using XL Fit software: The curve fitting was made using the Sigmoidal Dose-Response Model (Fit model, 205).
On the technique in general: An ELISA detects its analyte on a solid surface through an enzyme-linked reagent.

Test [2] relates to CSF1R (M-NFS-60 cells). Nature of the test: Cell Titer-Glo viability assay using M-NFS-60 cells. It counts as cell-based. Conditions: Mus musculus, read-out: Cellular CSF1R activity by M-NFS-60 viability assay (IC50 activity range). As to the method:
M-NFS-60 cells were cultured in RPMI-1640 medium containing 10% FBS, 0.05 mM 2-Mercaptoethanol, penicillin (100 U/ml)/streptomycin ([…]) and supplemented with 62 ng/ml recombinant human M-CSF at 37° C./5% CO2. Aliquots of the cells were seeded into a 96-well plate (2×10^5 cells in 100 μl/well) and then incubated at 37° C./5% CO2 1 h. Dissolve compound in 100% DMSO to make 10 mM stock solutions (Aliquots stored in the Nitrogen Cabinet). Dilute 10 mM compounds solutions for 2-fold in 100% DMSO to get 5 mM solutions (10 μl+10 μl DMSO), and then make a 3-fold serial dilution (10 μl+20 μl DMSO) for 10 doses. For reference compounds: Dilute 10 mM compounds solutions for 20-fold in 100% DMSO to get 0.5 mM solutions (2 μl+38 μl DMSO), and then make a 3-fold serial dilution (10 μl+20 μl DMSO) for 8 doses. The 96-well plate was equilibrated at room temperature for 30 min. 50 μl of CellTiter-Glo® Reagent added to each well and mixed for 2 min on an orbital shaker to induce cell lysis. The 96-well plate was incubated at room temperature for 10 min to stabilize luminescent signal. Luminescent was measured […] by EnVison plate reader. Calculations and Formulas: The following calculations and formulas are used for data analysis using XL Fit software: The curve fitting was made using the Sigmoidal Dose-Response Model (Fit model, 205).
On the technique in general: In ATP-based viability assays light output follows the ATP content of the culture.

[3] abbreviates: read-out: Cellular Axl activity by H1299 Elisa (IC50).

Read-outs that look alike come from different tables or passages of the source. A value given as a limit tells only on which side of the number the result lay.

The term IC50 denotes the point on the concentration scale where inhibition reaches its midpoint.

Take `COc1cc2nccc(Oc3ccc(NC(=O)c4nn(C5CC5)cc4OCC(F)(F)F)nn3)c2cc1OC` [Compound 112]: the IC50 was less than 500 nM in test [1] (setting [3]) and 1000 to 10000 nM in test [2].

Turning to `COc1cc2nccc(Oc3ccc(NC(=O)c4nn(CCOC5CC5)cc4OCC(F)(F)F)nc3)c2cc1OC` [Compound 153], the IC50 was less than 500 nM in test [1] (setting [3]) and less than 1000 nM in test [2].

For the molecule `COc1cc2nccc(Oc3ccc(NC(=O)c4nn(C5CC5)cc4NCCC(F)(F)F)nn3)c2cc1OC` [Compound 146], the IC50 was less than 500 nM in test [1] (setting [3]) and 1000 to 10000 nM in test [2].

As for `COc1cc2nccc(Oc3ccc(NC(=O)c4nn(CCN(C)C)cc4OCC(F)(F)F)nc3)c2cc1OC` [Compound 9], the results for the IC50 in test [1] (setting [3]) and in test [2] were less than 500 nM and less than 1000 nM, respectively.

Consider `CNCCn1cc(OCC(F)(F)F)c(C(=O)Nc2ccc(Oc3ccnc4cc(OC)c(OC)cc34)cn2)n1` [Compound 11], for which the IC50 is less than 500 nM in test [1] (setting [3]) and less than 1000 nM in test [2].

As to `CNCCn1cc(OCC(F)(F)F)c(C(=O)Nc2ccc(Oc3ccnc4cc(OC)c(OC)cc34)nc2)n1` [Compound 137], the IC50 was not below 1000 nM in test [1] (setting [3]) and 1000 to 10000 nM in test [2].

On to `COCCn1cc(OCC(F)(F)F)c(C(=O)Nc2ccc(Oc3ccnc4cc(OC)c(OC)cc34)nn2)n1` [Compound 126], for which the IC50 was less than 500 nM in test [1] (setting [3]) and 1000 to 10000 nM in test [2].

In the case of `COCCn1cc(OCC(F)(F)F)c(C(=O)Nc2ccc(Oc3ccnc4cc(OC)c(OC)cc34)nc2)n1` [Compound 104], the figures for the IC50 in test [1] (setting [3]) and in test [2] were 500 to 1000 nM and not below 10000 nM, respectively.

As for `COc1cc2nccc(Oc3ccc(NC(=O)c4nn(CC(C)O)cc4OCC(F)(F)F)cn3)c2cc1OC` (centres unmarked) [Compound 136], the IC50 in test [1] (setting [3]) is not below 1000 nM; in test [2] it was 1000 to 10000 nM.

Take `COc1cc2nccc(Oc3ccc(NC(=O)c4nn(C5CCN(C)C5)cc4OCC(F)(F)F)cc3)c2cc1OC` (centres unmarked) [Compound 100]: the values for the IC50 in test [1] (setting [3]) and in test [2] were 500 to 1000 nM and 1000 to 10000 nM, respectively.

Turning to `COc1cc2nccc(Oc3ccc(NC(=O)c4nn(C5CC5)cc4OCCF)nn3)c2cc1OC` [Compound 113], the results for the 50% inhibitory concentration (IC50) in test [1] (setting [3]) and in test [2] were less than 500 nM and 1000 to 10000 nM, respectively.

As for `COc1cc2nccc(Oc3ccc(NC(=O)c4n[nH]cc4OCC(F)(F)F)nc3)c2cc1OC` [Compound 16], the IC50 in test [1] (Elisa, comparison of compounds of present invention (**) vs compounds of WO2016/166250 (*), read-out: Cellular activity Axl (H1299) (IC50)) was 44 nM; in test [1] (setting [3]), less than 500 nM; in test [2], less than 1000 nM.

As to `COc1cc2nccc(Oc3ccc(NC(=O)c4nn(CCOC5CC5)cc4OCC(F)(F)F)cc3C)c2cc1OC` [Compound 117], the figures for the IC50 in test [1] (setting [3]) and in test [2] were 500 to 1000 nM and less than 1000 nM, respectively.

Take `CNCCn1cc(OCC(F)(F)F)c(C(=O)Nc2ccc(Oc3ccnc4cc(OC)c(OC)cc34)nn2)n1` [Compound 127]: the values for the IC50 in test [1] (setting [3]) and in test [2] were not below 1000 nM and not below 10000 nM, respectively.

In the case of `COc1cc2nccc(Oc3ccc(NC(=O)c4nn(C5CC5)cc4OCC4CCC4)nc3)c2cc1OC` [Compound 111], the IC50 in test [1] (setting [3]) was less than 500 nM; in test [2], 1000 to 10000 nM.

Consider `COc1cc2nccc(Oc3ccc(NC(=O)c4nn(CCOC5CC5)cc4OCC(F)(F)F)nn3)c2cc1OC` [Compound 120], for which the IC50 in test [1] (setting [3]) lay in the range of 500 to 1000 nM; in test [2] it was 1000 to 10000 nM.

Regarding `CNCCOc1cn(C2CC2)nc1C(=O)Nc1ccc(Oc2ccnc3cc(OC)c(OC)cc23)nn1` [Compound 160], the results for the IC50 in test [1] (setting [3]) and in test [2] were not below 1000 nM and not below 10000 nM, respectively.

`CCn1cc(OCC2CCC2)c(C(=O)Nc2ccc(Oc3ccnc4cc(OC)c(OC)cc34)cn2)n1` [Compound 8]: the IC50 in test [1] (setting [3]) was less than 500 nM; in test [2] it was less than 1000 nM.

For `COc1cc2nccc(Oc3ccc(NC(=O)c4nn(C5CC5)cc4OCC(F)F)nc3)c2cc1OC` [Compound 109], the concentration for half-maximal inhibition (IC50) in test [1] (setting [3]) is less than 500 nM; in test [2], less than 1000 nM.

Consider `CCCn1cc(OCCN(C)C)c(C(=O)Nc2ccc(Oc3ccnc4cc(OC)c(OC)cc34)c(F)c2)n1` [Compound 165], for which the IC50 in test [1] (setting [3]) was less than 500 nM; in test [2], 1000 to 10000 nM.

With `COc1cc2nccc(Oc3ccc(NC(=O)c4nn(CC5COC5)cc4OCC(F)(F)F)cc3)c2cc1OC` [Compound 101], the IC50 is less than 500 nM in test [1] (setting [3]) and 1000 to 10000 nM in test [2].

With `COc1cc2nccc(Oc3ccc(NC(=O)c4nn(CC5COC5)cc4OCC(F)(F)F)cn3)c2cc1OC` [Compound 134], the IC50 is less than 500 nM in test [1] (setting [3]) and not below 10000 nM in test [2].

As for `CCCn1cc(NCCC(F)(F)F)c(C(=O)Nc2ccc(Oc3ccnc4cc(OC)c(OC)cc34)cn2)n1` [Compound 158], the IC50 was less than 500 nM in test [1] (setting [3]) and 1000 to 10000 nM in test [2].
